Settings: for log10 biotransformation half-life (days) / log10 BCF: fish

Row | SMILES | melting point [°C] | boiling point [°C] | further results
1 | O=C(SSC(=O)c1ccccc1)c1ccccc1 | 134 |  | 
2 | CC(=O)Oc1cccc2ccccc12 | 44.5 |  | 
3 | CC(=O)[C@@H]1CC[C@H]2[C@@H]3CCC4=CC(=O)CC[C@]4(C)[C@H]3C(=O)C[C@]12C | 172 |  | 
4 | CCCC(=O)Nc1ccc(OCC(O)CNC(C)C)c(C(C)=O)c1 (configuration not stated) | 121 |  | 
5 | CCCCCCCCO | -15.5 | 195 | log10 Henry constant (atm·m³/mol): -4.61; log10 Koa: 6.03; log10 Koc (L/kg): 1.56; log10 vapour pressure (mmHg): -1.1; ready biodegradability: readily biodegradable
6 | CN(C)c1ccc(N=NS(=O)(=O)O)cc1 |  |  | log10 Koc (L/kg): 1.18
7 | COCCc1ccccn1 |  | 203 | 
8 | OCCOCCOCCOCCO |  | 328 | log10 vapour pressure (mmHg): -4.33
9 | Clc1ccc(-c2ccc(Cl)c(Cl)c2)cc1 |  |  | log10 Henry constant (atm·m³/mol): -4
10 | O=C(OC[C@H]1O[C@@H](Oc2ccccc2CO)[C@H](O)[C@@H](O)[C@@H]1O)c1ccccc1 | 180 |  | 
11 | N#CCCN1CCCCC1 | -6.8 |  | 
12 | CN(C)S(=O)(=O)N(SC(F)(Cl)Cl)c1ccccc1 | 106 |  | log10 vapour pressure (mmHg): -6.95; ready biodegradability: not readily biodegradable
13 | C=C(C)CCl |  | 71.5 | log10 vapour pressure (mmHg): 2.01; ready biodegradability: readily biodegradable
14 | Clc1cccc(Cl)c1Br | 65 | 242 | 
15 | CCN(CC)c1nc(Cl)nc(NC(C)C)n1 |  |  | log10 Koc (L/kg): 2.91
16 | Clc1ccc(Oc2c(Cl)cc(Cl)cc2Cl)c(Cl)c1 |  |  | log10 biotransformation half-life (days): 1.69
17 | CC(Cl)(Cl)C(=O)OCCOc1cc(Cl)c(Cl)cc1Cl | 49.5 |  | 
18 | C=C(C)CCCCCCCCCCC |  |  | log10 biotransformation half-life (days): 0.73
19 | CC(C=O)c1ccccc1 (configuration not stated) |  | 204 | log10 vapour pressure (mmHg): -0.569
20 | C[Si](C)(C)O[Si](C)(C)O[Si](C)(C)O[Si](C)(C)O[Si](C)(C)O[Si](C)(C)O[Si](C)(C)O[Si](C)(C)C |  |  | log10 vapour pressure (mmHg): -2.5
21 | CC(=O)CCC=C(C)C | -67.1 | 174 | ready biodegradability: readily biodegradable
22 | Cc1cc2nc[nH]c2cc1C | 206 |  | 
23 | OCc1ccccc1I | 92 |  | 
24 | Fc1cc(F)c(F)c(F)c1 | -48 | 84.4 | log10 vapour pressure (mmHg): 1.86
25 | O=c1ccn([C@@H]2C[C@@H](O)[C@H](CO)O2)c(=O)[nH]1 | 163 |  | 
26 | Cc1c(Cc2cc(C(C)(C)C)c(O)c(C(C)(C)C)c2)c(C)c(Cc2cc(C(C)(C)C)c(O)c(C(C)(C)C)c2)c(C)c1Cc1cc(C(C)(C)C)c(O)c(C(C)(C)C)c1 | 244 |  | ready biodegradability: not readily biodegradable
27 | COc1cc(NC(=O)CC(C)=O)c(OC)cc1Cl |  |  | ready biodegradability: not readily biodegradable

Row | SMILES | melting point [°C] | boiling point [°C] | further results
28 | O=P(O)(O)CN(CP(=O)(O)O)CP(=O)(O)O |  | 480 | log10 vapour pressure (mmHg): -11.2
29 | CC(C)c1ccccc1O | 15.5 | 214 | log10 vapour pressure (mmHg): -1
30 | CC(C)[C@H]1CC[C@H](C)C[C@@H]1OCC(=O)O | 54 |  | 
31 | CC1COCc2cc3c(cc21)C(C)(C)C(C)C3(C)C (configuration not stated) | -5 | 325 | log10 vapour pressure (mmHg): -3.26
32 | O=C(O)[C@@H]1CCCO1 | 21 |  | 
33 | CCCCOC(=O)CCl |  | 183 | 
34 | CC(=O)Nc1nnc(S(N)(=O)=O)s1 | 260 |  | 
35 | ClCC(Br)CBr (configuration not stated) | 6 | 196 | log10 Koc (L/kg): 1.85; log10 vapour pressure (mmHg): -0.237; ready biodegradability: not readily biodegradable; log10 BCF: 1.06; log10 biotransformation half-life (days): -1.14
36 | NCCNCc1ccccc1 |  |  | ready biodegradability: not readily biodegradable
37 | COc1ccc(C[C@H]2c3cc(OC)c(OC)cc3CCN2C)cc1O | 176 |  | 
38 | O=c1oc(=O)c2cc3c(=O)oc(=O)c3cc12 |  |  | ready biodegradability: readily biodegradable
39 | CCCCCCCCCCCCc1ccccc1 | 3 | 328 | log10 vapour pressure (mmHg): -4.29; ready biodegradability: readily biodegradable
40 | CC(=O)O[C@@]12CO[C@@H]1C[C@H](O)[C@@]1(C)C(=O)[C@H](O)C3=C(C)[C@@H](OC(=O)[C@H](O)[C@@H](NC(=O)OC(C)(C)C)c4ccccc4)C[C@@](O)([C@@H](OC(=O)c4ccccc4)[C@H]21)C3(C)C | 232 |  | 
41 | O=S=Nc1ccccc1 |  | 200 | 
42 | O=Cc1ccccc1C(=O)O | 98 |  | 
43 | C=COc1ccccc1 |  | 156 | 
44 | O=C(O)c1ccccc1Cl | 140 | 287 | log10 vapour pressure (mmHg): -3.18; ready biodegradability: not readily biodegradable; log10 BCF: 1
45 | C[C@H](O)CC[C@H](C)O | 43 | 218 | 
46 | Cc1cccc(C(=O)Cl)c1 | -23 | 220 | 
47 | COc1c2ccoc2cc2oc(CO[C@@H]3O[C@H](CO)[C@@H](O)[C@H](O)[C@H]3O)cc(=O)c12 | 179 |  | 
48 | C[Si](C)(C)C#C[Si](C)(C)C | 26 | 134 | 
49 | CC=COCC |  | 71.5 | 
50 | O=Nc1ccc(Nc2ccccc2)cc1 | 143 | 292 | ready biodegradability: not readily biodegradable
51 | CCCCCCCCCCCCCCCCCC | 28.2 | 316 | log10 biodegradation half-life (days): 1.32; log10 vapour pressure (mmHg): -3.47; ready biodegradability: readily biodegradable
52 | Cc1occc(=O)c1O | 162 |  | 
53 | COc1cccc(C(N)=O)c1 | 134 |  | 
54 | CN(C)CCN(C)C | -55 | 121 | 

Row | SMILES | melting point [°C] | boiling point [°C] | further results
55 | CC(C)CCC(C)C(C)C (configuration not stated) |  | 156 | 
56 | Cc1cnc(NS(=O)(=O)c2ccc(N)cc2)nc1 | 262 |  | 
57 | Cc1cccc(C)c1I | 11.2 | 230 | 
58 | CCC[Si](C)(C)C |  | 89 | 
59 | NC(=O)N1c2ccccc2CC(=O)c2ccccc21 | 216 |  | 
60 | C#CC(C)(O)C(C)C (configuration not stated) |  | 134 | 
61 | O=C(OCC(=O)N1CCCCC1)c1ccccc1 | 88 |  | 
62 | CC(C)OC(=O)Nc1cccc(Cl)c1 | 41 |  | log10 Koc (L/kg): 2.6; log10 vapour pressure (mmHg): -3.74; ready biodegradability: readily biodegradable
63 | CC(C)CCON=O |  | 99.2 | 
64 | Nc1ccc(Sc2ccc(N)cc2)cc1 | 108 | 361 | log10 Koc (L/kg): 2.04
65 | Nc1nc2nn[nH]c2c(=O)[nH]1 | 300 |  | 
66 | O=C(O)c1cc(=O)c2cccc(O)c2[nH]1 | 289 |  | 
67 | CCOC(=O)c1cncn1C(C)c1ccccc1 (configuration not stated) | 67 |  | 
68 | CC(C)(Oc1ccc(C2CC2(Cl)Cl)cc1)C(=O)O (configuration not stated) | 115 |  | 
69 | Cc1c(COC(=O)[C@@H]2[C@H](/C=C(\Cl)C(F)(F)F)C2(C)C)cccc1-c1ccccc1 (racemic) | 69 |  | log10 Koc (L/kg): 5.35; log10 vapour pressure (mmHg): -6.74
70 | O=C1c2cccc([N+](=O)[O-])c2C(=O)c2cccc([N+](=O)[O-])c21 | 385 |  | 
71 | CC1=CC[C@@H]2C[C@@H](C[C@]3(CC[C@H](C)[C@@H](C)O3)O2)OC(=O)[C@@H]2C=C(C)[C@@H](O)[C@H]3OCC(=CC=C[C@H](C)C1)[C@]32O | 214 |  | 
72 | CCC(C)(C)C(C)(C)C | -9.8 | 140 | log10 vapour pressure (mmHg): 0.976
73 | Brc1ccccc1 | -30.6 | 156 | log10 Henry constant (atm·m³/mol): -2.61; log10 Koc (L/kg): 2.49; log10 vapour pressure (mmHg): 0.621; ready biodegradability: not readily biodegradable; log10 BCF: 1.36; log10 biotransformation half-life (days): -1.19
74 | CCCCCCCCCCCC(O)CC (configuration not stated) | 31.5 |  | 
75 | C=CC[Si](C)(C)Cl |  | 111 | 
76 | CCCCCCCCCCCCCc1ccccc1 | 10 | 346 | log10 vapour pressure (mmHg): -4.9
77 | Cc1cc(-c2cc(C)c(OCC3CO3)c(C)c2)cc(C)c1OCC1CO1 (configuration not stated) |  |  | ready biodegradability: not readily biodegradable
78 | CC(C)(O)CC(C)(O)c1ccc(Cl)cc1 (configuration not stated) | 76.5 |  | 
79 | CCC(C)C(C)CC (configuration not stated) |  | 118 | log10 biodegradation half-life (days): 0.477; log10 vapour pressure (mmHg): 1.34
80 | C=C1CCC1=C |  | 64 | 

— the OPERA property sets (Mansouri et al. 2018)
